Results from BindingDB's records for doi:10.1021/jm030354b (Millennium Pharmaceuticals, 2004).

Key:
[1] = Inhibition of human platelet (h-PRP) aggregation induced by 5 uM TRAP6 with PPACK
[2] = biological target: T1, Integrin alpha-IIb/beta-3 (Homo sapiens, UniProt P08514+P05106); test: Inhibition of human platelet (h-PRP) aggregation induced by 20 uM ADP with PPACK
[3] = Inhibition of citreated human (h-PRP) platelet aggregation induced by 5 uM TRAP6
[4] = biological target: T1, Integrin alpha-IIb/beta-3; test: Inhibition of platelet aggregation induced by 20 uM adenosine 5-diphosphate (ADP) in citreated human platelet rich plasma (h-PRP)
[5] = Inhibition of human platelet (h-PRP) aggregation induced by 20 uM ADP with PPACK
[6] = Inhibition of human platelet (h-PRP) aggregation induced by 4 ug/mL collagen with PPACK
[7] = Inhibition of citreated human platelet (h-PRP) aggregation induced by 4 ug/mL collagen

T1 sequence (P05106 27-788 limits assumed): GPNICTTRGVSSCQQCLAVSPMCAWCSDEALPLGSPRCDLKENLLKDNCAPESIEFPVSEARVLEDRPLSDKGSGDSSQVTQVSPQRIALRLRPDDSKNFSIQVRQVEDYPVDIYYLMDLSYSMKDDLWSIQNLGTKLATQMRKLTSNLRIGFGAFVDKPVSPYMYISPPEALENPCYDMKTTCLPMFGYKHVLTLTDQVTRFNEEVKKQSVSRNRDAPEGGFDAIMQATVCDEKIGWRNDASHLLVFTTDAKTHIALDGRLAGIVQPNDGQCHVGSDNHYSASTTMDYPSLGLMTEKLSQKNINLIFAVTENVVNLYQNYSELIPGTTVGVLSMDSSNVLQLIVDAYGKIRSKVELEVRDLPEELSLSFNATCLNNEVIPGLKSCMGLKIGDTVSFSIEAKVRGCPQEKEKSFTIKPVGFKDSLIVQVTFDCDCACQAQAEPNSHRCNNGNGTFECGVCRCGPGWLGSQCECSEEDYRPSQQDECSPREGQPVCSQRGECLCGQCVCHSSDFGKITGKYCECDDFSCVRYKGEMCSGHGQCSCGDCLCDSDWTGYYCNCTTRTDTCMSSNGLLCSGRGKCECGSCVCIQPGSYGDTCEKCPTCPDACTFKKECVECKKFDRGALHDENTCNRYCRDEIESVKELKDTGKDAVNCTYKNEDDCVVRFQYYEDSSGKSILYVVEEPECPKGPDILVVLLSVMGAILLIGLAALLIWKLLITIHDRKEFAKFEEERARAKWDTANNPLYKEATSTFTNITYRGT
T1 sequence (P08514 32-887 limits assumed): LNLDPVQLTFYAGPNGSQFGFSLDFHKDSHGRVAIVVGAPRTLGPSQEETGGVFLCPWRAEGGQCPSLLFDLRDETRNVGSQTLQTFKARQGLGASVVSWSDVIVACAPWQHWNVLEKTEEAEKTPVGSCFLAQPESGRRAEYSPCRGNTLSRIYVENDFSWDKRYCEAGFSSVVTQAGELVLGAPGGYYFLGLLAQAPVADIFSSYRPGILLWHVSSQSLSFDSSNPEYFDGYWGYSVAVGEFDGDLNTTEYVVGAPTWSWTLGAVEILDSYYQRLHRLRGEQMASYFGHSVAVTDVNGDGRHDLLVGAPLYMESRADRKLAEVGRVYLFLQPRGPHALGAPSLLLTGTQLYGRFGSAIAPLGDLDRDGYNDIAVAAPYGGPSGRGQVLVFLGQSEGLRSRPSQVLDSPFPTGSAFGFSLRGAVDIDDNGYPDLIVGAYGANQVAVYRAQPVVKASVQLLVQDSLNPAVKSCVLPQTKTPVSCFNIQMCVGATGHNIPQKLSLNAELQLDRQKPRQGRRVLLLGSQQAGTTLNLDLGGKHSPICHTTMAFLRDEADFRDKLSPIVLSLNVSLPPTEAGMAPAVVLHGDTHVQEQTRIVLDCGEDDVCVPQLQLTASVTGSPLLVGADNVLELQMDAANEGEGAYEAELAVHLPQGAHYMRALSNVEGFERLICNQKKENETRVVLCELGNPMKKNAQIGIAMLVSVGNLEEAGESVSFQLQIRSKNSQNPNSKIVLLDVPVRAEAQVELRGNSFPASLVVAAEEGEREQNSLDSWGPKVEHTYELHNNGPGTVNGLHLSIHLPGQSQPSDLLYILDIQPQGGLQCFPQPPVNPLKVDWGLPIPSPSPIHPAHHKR
T1 sequence (P08514 891-1039 limits assumed): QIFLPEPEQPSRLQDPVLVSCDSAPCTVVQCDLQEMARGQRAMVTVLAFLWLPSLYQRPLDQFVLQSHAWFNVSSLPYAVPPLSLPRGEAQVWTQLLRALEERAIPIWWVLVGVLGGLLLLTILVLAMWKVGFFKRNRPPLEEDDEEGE

SMILES	IC50 [4]	other results
N=C(N)c1ccc(N2CCC3(CCN(C(=O)NCCC(=O)O)CC3)C2=O)cc1 [3-{[2-(4-Carbamimidoyl-phenyl)-1-oxo-2,8-diaza-spiro[4.5]decane-8-carbonyl]-amino}-propionic acid]	53 nM	IC50 [1]: 365 nM; IC50 [2]: 110 nM; IC50 [3]: 120 nM
CCOC(=O)COC1CCN(C(=O)[C@H](C)NC(=O)c2ccc(C(=N)NO)cc2)CC1 [((S)-1-{2-[4-(N-Hydroxycarbamimidoyl)-benzoylamino]-propionyl}-piperidin-4-yloxy)-acetic acid ethyl ester]	51 nM	IC50 [1]: 182 nM; IC50 [3]: 147 nM; IC50 [5]: 72 nM
N=C(N)c1ccc(N2C(=O)CC3(CCN(C(=O)CCCC(=O)O)CC3)C2=O)cc1 [5-[2-(4-Carbamimidoyl-phenyl)-1,3-dioxo-2,8-diaza-spiro[4.5]dec-8-yl]-5-oxo-pentanoic acid]	730 nM	
CCCCOC(=O)N[C@@H](CCC(=O)N1CCC2(CC1)CCN(c1ccc(C(=N)N)cc1)C2=O)C(=O)O [2-Butoxycarbonylamino-5-[2-(4-carbamimidoyl-phenyl)-1-oxo-2,8-diaza-spiro[4.5]dec-8-yl]-5-oxo-pentanoic acid]	66 nM	
CN1C(=O)N(c2ccc(C(=N)N)cc2)C(=O)C12CCN(C(=O)NCCC(=O)O)CC2 [3-{[3-(4-Carbamimidoyl-phenyl)-1-methyl-2,4-dioxo-1,3,8-triaza-spiro[4.5]decane-8-carbonyl]-amino}-propionic acid]	222 nM	
CC(CC(=O)O)NC(=O)N1CCC2(CC1)CCN(c1ccc(C(=N)N)cc1)C2=O (stereo unspecified) [3-{[2-(4-Carbamimidoyl-phenyl)-1-oxo-2,8-diaza-spiro[4.5]decane-8-carbonyl]-amino}-butyric acid]	122 nM	
N=C(N)c1ccc(N2C(=O)NC3(CCN(C(=O)NCCC(=O)O)CC3)C2=O)cc1 [3-{[3-(4-Carbamimidoyl-phenyl)-2,4-dioxo-1,3,8-triaza-spiro[4.5]decane-8-carbonyl]-amino}-propionic acid]	468 nM	
Cc1noc(C)c1S(=O)(=O)N[C@@H](CCC(=O)N1CCC2(CC1)C(=O)N(c1ccc(C(=N)N)cc1)C(=O)N2C)C(=O)O [5-[3-(4-Carbamimidoyl-phenyl)-1-methyl-2,4-dioxo-1,3,8-triaza-spiro[4.5]dec-8-yl]-2-(3,5-dimethyl-isoxazole-4-sulfonylamino)-5-oxo-pentanoic acid]	118 nM	
CN1C(=O)N(c2ccc(C(=N)N)cc2)C(=O)C12CCN(C(=O)NC(CC(=O)O)c1ccccc1)CC2 (stereo unspecified) [3-{[3-(4-Carbamimidoyl-phenyl)-1-methyl-2,4-dioxo-1,3,8-triaza-spiro[4.5]decane-8-carbonyl]-amino}-3-phenyl-propionic acid]	103 nM	
CC(C)(COC(=O)N1CCC2(CC1)CC(=O)N(c1ccc(C(=N)N)cc1)C2)C(=O)O [2-(4-Carbamimidoyl-phenyl)-3-oxo-2,8-diaza-spiro[4.5]decane-8-carboxylic acid 2-carboxy-2-methyl-propyl ester]	3600 nM	
N=C(N)c1ccc(N2CCC3(CCN(C(=O)COCC(=O)O)CC3)C2=O)cc1 [{2-[2-(4-Carbamimidoyl-phenyl)-1-oxo-2,8-diaza-spiro[4.5]dec-8-yl]-2-oxo-ethoxy}-acetic acid]	108 nM	IC50 [6]: 812 nM; IC50 [1]: 691 nM; IC50 [2]: 260 nM; IC50 [3]: 273 nM; IC50 [7]: 393 nM
Cc1noc(C)c1S(=O)(=O)N[C@@H](CCC(=O)N1CCC2(CC1)CCN(c1ccc(C(=N)N)cc1)C2=O)C(=O)O [5-[2-(4-Carbamimidoyl-phenyl)-1-oxo-2,8-diaza-spiro[4.5]dec-8-yl]-2-(3,5-dimethyl-isoxazole-4-sulfonylamino)-5-oxo-pentanoic acid]	36 nM	
CCCCOC(=O)N[C@@H](CCC(=O)N1CCC2(CC1)CC(=O)N(c1ccc(C(=N)N)cc1)C2=O)C(=O)O [2-Butoxycarbonylamino-5-[2-(4-carbamimidoyl-phenyl)-1,3-dioxo-2,8-diaza-spiro[4.5]dec-8-yl]-5-oxo-pentanoic acid]	270 nM	
N=C(N)c1ccc(N2CCC3(CCN(C(=O)CCC(=O)O)CC3)C2=O)cc1 [4-[2-(4-Carbamimidoyl-phenyl)-1-oxo-2,8-diaza-spiro[4.5]dec-8-yl]-4-oxo-butyric acid]	733 nM	
CN1C(=O)N(c2ccc(C(=N)N)cc2)CC12CCN(C(=O)CCCC(=O)O)CC2 [5-[3-(4-Carbamimidoyl-phenyl)-1-methyl-2-oxo-1,3,8-triaza-spiro[4.5]dec-8-yl]-5-oxo-pentanoic acid]	674 nM	
CN1C(=O)N(c2ccc(C(=N)N)cc2)C(=O)C12CCN(C(=O)CCCC(=O)O)CC2 [5-[3-(4-Carbamimidoyl-phenyl)-1-methyl-2,4-dioxo-1,3,8-triaza-spiro[4.5]dec-8-yl]-5-oxo-pentanoic acid]	700 nM	
C[C@@H](CC(=O)O)CC(=O)N1CCC2(CC1)CCN(c1ccc(C(=N)N)cc1)C2=O [(R)-5-[2-(4-Carbamimidoyl-phenyl)-1-oxo-2,8-diaza-spiro[4.5]dec-8-yl]-3-methyl-5-oxo-pentanoic acid]		IC50 [5]: 112 nM
N=C(N)c1ccc(N2C(=O)NC3(CCN(C(=O)CCCC(=O)O)CC3)C2=O)cc1 [5-[3-(4-Carbamimidoyl-phenyl)-2,4-dioxo-1,3,8-triaza-spiro[4.5]dec-8-yl]-5-oxo-pentanoic acid]	586 nM	
Cc1ccc(S(=O)(=O)N[C@@H](CNC(=O)N2CCC3(CC2)CCN(c2ccc(C(=N)N)cc2)C3=O)C(=O)O)cc1 [3-{[2-(4-Carbamimidoyl-phenyl)-1-oxo-2,8-diaza-spiro[4.5]decane-8-carbonyl]-amino}-2-(toluene-4-sulfonylamino)-propionic acid]	66 nM	
N=C(N)c1ccc(N2CC3(CCN(C(=O)CC(=O)O)CC3)CC2=O)cc1 [3-[2-(4-Carbamimidoyl-phenyl)-3-oxo-2,8-diaza-spiro[4.5]dec-8-yl]-3-oxo-propionic acid]	7400 nM	
N=C(N)c1ccc(N2C(=O)CC3(CCN(C(=O)NCCC(=O)O)CC3)C2=O)cc1 [3-{[2-(4-Carbamimidoyl-phenyl)-1,3-dioxo-2,8-diaza-spiro[4.5]decane-8-carbonyl]-amino}-propionic acid]	640 nM	
N=C(N)c1ccc(N2CCC3(CCN(CCCCC(=O)O)CC3)C2=O)cc1 [5-[2-(4-Carbamimidoyl-phenyl)-1-oxo-2,8-diaza-spiro[4.5]dec-8-yl]-pentanoic acid]	5180 nM	
CCOC(=O)CCNC(=O)N[C@H]1CCN(c2ccc(C(=N)N)cc2)C1=O [SC-57099B]	68 nM	IC50 [1]: 362 nM; IC50 [3]: 166 nM; IC50 [5]: 137 nM
CN1C(=O)N(c2ccc(C(=N)N)cc2)CC12CCN(C(=O)CC(CC(=O)O)c1ccccc1)CC2 (stereo unspecified) [5-[3-(4-Carbamimidoyl-phenyl)-1-methyl-2-oxo-1,3,8-triaza-spiro[4.5]dec-8-yl]-5-oxo-3-phenyl-pentanoic acid]	80 nM	
N=C(N)c1ccc(N2CC3(CCN(C(=O)CCC(=O)O)CC3)CC2=O)cc1 [4-[2-(4-Carbamimidoyl-phenyl)-3-oxo-2,8-diaza-spiro[4.5]dec-8-yl]-4-oxo-butyric acid]	5700 nM	
N=C(N)c1ccc(N2CCC3(CCN(C(=O)CCCC(=O)O)CC3)C2=O)cc1 [5-[2-(4-Carbamimidoyl-phenyl)-1-oxo-2,8-diaza-spiro[4.5]dec-8-yl]-5-oxo-pentanoic acid]	54 nM	IC50 [6]: 464 nM; IC50 [1]: 368 nM; IC50 [3]: 123 nM; IC50 [5]: 168 nM; IC50 [7]: 175 nM
N=C(N)c1ccc(N2CCC3(CCN(C(=O)CCCCC(=O)O)CC3)C2=O)cc1 [6-[2-(4-Carbamimidoyl-phenyl)-1-oxo-2,8-diaza-spiro[4.5]dec-8-yl]-6-oxo-hexanoic acid]	3400 nM	
